{"source": "paper PMC4763238", "about": "“Resveratrol induces autophagy by directly inhibiting mTOR through ATP competition” (Scientific Reports, 2016)", "molecular_target": "T1, mTOR (Homo sapiens, UniProt P42345)", "T1 construct": "GST-tagged recombinant fragment mTOR, some regulatory domains deleted, intact kinase domain; also immunoprecipitated full-length HA-mTOR", "T1 sequence (P42345 1360-2549)": "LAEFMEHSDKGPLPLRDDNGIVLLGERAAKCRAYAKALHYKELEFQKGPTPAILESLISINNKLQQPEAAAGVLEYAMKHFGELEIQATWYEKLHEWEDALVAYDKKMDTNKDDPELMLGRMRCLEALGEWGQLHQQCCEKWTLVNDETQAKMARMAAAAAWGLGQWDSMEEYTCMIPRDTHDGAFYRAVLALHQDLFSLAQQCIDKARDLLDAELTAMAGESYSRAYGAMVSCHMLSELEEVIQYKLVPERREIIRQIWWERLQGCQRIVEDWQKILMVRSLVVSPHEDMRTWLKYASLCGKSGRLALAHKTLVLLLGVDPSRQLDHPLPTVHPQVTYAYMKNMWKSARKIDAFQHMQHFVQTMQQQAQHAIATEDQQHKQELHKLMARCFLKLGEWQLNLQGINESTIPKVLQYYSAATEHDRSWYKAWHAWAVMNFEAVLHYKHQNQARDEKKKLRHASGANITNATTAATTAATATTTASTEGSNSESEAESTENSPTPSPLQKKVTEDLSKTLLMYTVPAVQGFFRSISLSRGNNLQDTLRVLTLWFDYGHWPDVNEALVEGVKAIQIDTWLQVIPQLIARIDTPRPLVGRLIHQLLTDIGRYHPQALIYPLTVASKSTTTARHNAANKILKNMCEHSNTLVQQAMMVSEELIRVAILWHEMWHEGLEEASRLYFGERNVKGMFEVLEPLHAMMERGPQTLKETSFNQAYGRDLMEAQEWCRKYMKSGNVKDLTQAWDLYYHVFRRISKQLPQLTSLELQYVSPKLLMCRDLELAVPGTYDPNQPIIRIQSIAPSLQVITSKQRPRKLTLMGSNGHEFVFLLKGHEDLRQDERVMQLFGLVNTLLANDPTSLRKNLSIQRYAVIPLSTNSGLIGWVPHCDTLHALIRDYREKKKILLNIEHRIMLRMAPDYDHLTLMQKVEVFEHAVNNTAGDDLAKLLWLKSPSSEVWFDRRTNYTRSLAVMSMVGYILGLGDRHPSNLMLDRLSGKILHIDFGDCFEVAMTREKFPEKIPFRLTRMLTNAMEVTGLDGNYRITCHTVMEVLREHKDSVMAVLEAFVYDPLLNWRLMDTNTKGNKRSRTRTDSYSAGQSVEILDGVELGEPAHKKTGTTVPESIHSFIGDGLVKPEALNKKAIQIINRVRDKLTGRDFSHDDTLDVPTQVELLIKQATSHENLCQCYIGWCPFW", "test": "in vitro kinase assay (GST-S6K or 4E-BP1 phosphorylation), with ATP competition and a resistant mutant", "assay_type": "biochemical", "note": "pIC50: −log10 of the molar value."}
{"smiles": "Oc1ccc(/C=C/c2cc(O)cc(O)c2)cc1", "note": "[resveratrol, 3,40,5-trihydroxy-trans-stilbene]", "values": [{"measurement": "pIC50", "result": "~5.00"}]}
